Read-outs that look alike come from different tables or passages of the source.
Tested on: ulcer
Experiment: Anti-ulcer test (restraint and water immersion ulcer in rats, i.p.)
Type: in vivo, Male Wistar rats
Conditions: Rattus norvegicus, ip, read-out: % Inhibition of Ulcer
Summary of the method: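 Compound given intraperitoneally in saline to 24 h-fasted male Wistar rats about 150 g, followed after one hour by 6 h restraint with water immersion at 21 °C. Gastric lesions graded 0, 0.5, 1, 2 or 3 on microscopic inspection and converted to percent ulcer inhibition.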

Row | Compound | inhibition in vivo at 25 mg/kg (25 mg/kg i.p.) | inhibition in vivo at 25 mg/kg
1 | CCCCNC(=O)CC(N)C(O)C(O)C(=O)NC(CC(C)C)C1Cc2cccc(O)c2C(=O)O1 (stereo not shown) [VII-1-4] | 100% | –
2 | CC(C)CCNC(=O)CC(N)C(O)C(O)C(=O)NC(CC(C)C)C1Cc2cccc(O)c2C(=O)O1 (stereo not shown) [VII-1-5] | 100% | –
3 | CCCCCCCCCCCCCCCCCCNC(=O)CC(N)C(O)C(O)C(=O)NC(CC(C)C)C1Cc2cccc(O)c2C(=O)O1 (stereo not shown) [VII-1-6] | 89% | –
4 | CCCCCCCCC=CCCCCCCCCNC(=O)CC(N)C(O)C(O)C(=O)NC(CC(C)C)C1Cc2cccc(O)c2C(=O)O1 (stereo not shown) [VII-1-8] | 89% | –
5 | CC(C)CC(NC(=O)C(O)C(O)C(N)CC(=O)NCc1ccccc1)C1Cc2cccc(O)c2C(=O)O1 (stereo not shown) [VII-1-10] | 94% | –
6 | CC(C)CC(NC(=O)C(O)C(O)C(N)CC(=O)NC1CC1)C1Cc2cccc(O)c2C(=O)O1 (stereo not shown) [VII-1-11] | 94% | –
7 | CC(C)CC(NC(=O)C(O)C(O)C(N)CC(=O)NCC1CCCCC1)C1Cc2cccc(O)c2C(=O)O1 (stereo not shown) [VII-1-12] | 94% | –
8 | CC(C)CC(NC(=O)C(O)C(O)C(N)CC(=O)NCCc1ccccc1)C1Cc2cccc(O)c2C(=O)O1 (stereo not shown) [VII-1-13] | 89% | –
9 | CC(C)CC(NC(=O)C(O)C(O)C(N)CC(=O)NCc1ccco1)C1Cc2cccc(O)c2C(=O)O1 (stereo not shown) [VII-1-14] | 89% | –
10 | CC(C)CC(NC(=O)C(O)C(O)C(N)CC(=O)NCC1CCCO1)C1Cc2cccc(O)c2C(=O)O1 (stereo not shown) [VII-1-15] | 89% | –
11 | CC(C)CC(NC(=O)C(O)C(O)C(N)CC(=O)NCCC1CCCCO1)C1Cc2cccc(O)c2C(=O)O1 (stereo not shown) [VII-1-16] | 94% | –
12 | CC(=O)N1CCC(CNC(=O)CC(N)C(O)C(O)C(=O)NC(CC(C)C)C2Cc3cccc(O)c3C(=O)O2)CC1 (stereo not shown) [VII-1-17] | 83% | –
13 | CC(C)CC(NC(=O)C(O)C(O)C(N)CC(=O)NCc1ccc2ccccc2c1)C1Cc2cccc(O)c2C(=O)O1 (stereo not shown) [VII-1-18] | 78% | –
14 | CC(C)CC(NC(=O)C(O)C(O)C(N)CC(=O)NCCc1ccc2ccccc2c1)C1Cc2cccc(O)c2C(=O)O1 (stereo not shown) [VII-1-19] | 78% | –
15 | CC(C)CC(NC(=O)C(O)C(O)C(N)CC(=O)NCc1cccc(Cl)c1)C1Cc2cccc(O)c2C(=O)O1 (stereo not shown) [VII-1-20] | 94% | –
16 | CCC(=O)CNC(=O)CC(N)C(O)C(O)C(=O)NC(CC(C)C)C1Cc2cccc(O)c2C(=O)O1 (stereo not shown) [VII-1-21] | 100% | –
17 | Cc1ccc(CNC(=O)CC(N)C(O)C(O)C(=O)NC(CC(C)C)C2Cc3cccc(O)c3C(=O)O2)cc1 (stereo not shown) [VII-1-22] | 83% | –
18 | COc1ccc(CNC(=O)CC(N)C(O)C(O)C(=O)NC(CC(C)C)C2Cc3cccc(O)c3C(=O)O2)cc1 (stereo not shown) [VII-1-24] | 83% | –
19 | COC(C)CCNC(=O)CC(N)C(O)C(O)C(=O)NC(CC(C)C)C1Cc2cccc(O)c2C(=O)O1 (stereo not shown) [VII-1-26] | 94% | –
20 | CCCCCOC(C)CCNC(=O)CC(N)C(O)C(O)C(=O)NC(CC(C)C)C1Cc2cccc(O)c2C(=O)O1 (stereo not shown) [VII-1-27] | – | 89%
21 | CC(=O)OC(C)CCNC(=O)CC(N)C(O)C(O)C(=O)NC(CC(C)C)C1Cc2cccc(O)c2C(=O)O1 (stereo not shown) [VII-1-28] | 94% | –
22 | CCCCCC(=O)OC(C)CCNC(=O)CC(N)C(O)C(O)C(=O)NC(CC(C)C)C1Cc2cccc(O)c2C(=O)O1 (stereo not shown) [VII-1-29] | 94% | –
23 | CC(C)=CCCC(C)=CCNC(=O)CC(N)C(O)C(O)C(=O)NC(CC(C)C)C1Cc2cccc(O)c2C(=O)O1 (stereo not shown) [VII-1-30] | 83% | –

Row | Compound | inhibition in vivo at 25 mg/kg (25 mg/kg i.p.) | inhibition in vivo at 25 mg/kg
24 | CCC(C)CCCCCNC(=O)CC(N)C(O)C(O)C(=O)NC(CC(C)C)C1Cc2cccc(O)c2C(=O)O1 (stereo not shown) [VII-1-31] | 83% | –
25 | CC(C)CC(NC(=O)C(O)C(O)C(N)CC(=O)NCC1CCCCCCC1)C1Cc2cccc(O)c2C(=O)O1 (stereo not shown) [VII-1-33] | 83% | –
26 | CC(C)CC(NC(=O)C(O)C(O)C(N)CC(=O)NCCCC1CCCC1)C1Cc2cccc(O)c2C(=O)O1 (stereo not shown) [VII-1-34] | 83% | –
27 | Cc1ccc(CCNC(=O)CC(N)C(O)C(O)C(=O)NC(CC(C)C)C2Cc3cccc(O)c3C(=O)O2)cc1 (stereo not shown) [VII-1-35] | 83% | –
28 | CC(C)CCCC(C)CCCC(C)CCCCNC(=O)CC(N)C(O)C(O)C(=O)NC(CC(C)C)C1Cc2cccc(O)c2C(=O)O1 (stereo not shown) [VII-1-36] | 83% | –
29 | CC(C)CC(NC(=O)C(O)C(O)C(N)CC(=O)NCc1ccc(C(C)C)cc1)C1Cc2cccc(O)c2C(=O)O1 (stereo not shown) [VII-1-38] | 94% | –
30 | CCCCCc1ccc(CNC(=O)CC(N)C(O)C(O)C(=O)NC(CC(C)C)C2Cc3cccc(O)c3C(=O)O2)cc1 (stereo not shown) [VII-1-40] | 94% | –
31 | CCCC=Cc1ccc(CNC(=O)CC(N)C(O)C(O)C(=O)NC(CC(C)C)C2Cc3cccc(O)c3C(=O)O2)cc1 (stereo not shown) [VII-1-41] | 83% | –
32 | CC(C)CC(NC(=O)C(O)C(O)C(N)CC(=O)NC(C)C)C1Cc2cccc(O)c2C(=O)O1 (stereo not shown) [VII-1-42] | 94% | –
33 | Cc1ccc(NC(=O)CC(N)C(O)C(O)C(=O)NC(CC(C)C)C2Cc3cccc(O)c3C(=O)O2)cc1 (stereo not shown) [VII-1-43] | 94% | –
34 | CC(C)CC(NC(=O)C(O)C(O)C(N)CC(=O)NCCN1CCCCC1)C1Cc2cccc(O)c2C(=O)O1 (stereo not shown) [VII-1-46] | 94% | –
35 | CC(=O)OC(C(=O)NC(CC(C)C)C1Cc2cccc(O)c2C(=O)O1)C(O)C(N)CC(N)=O (stereo not shown) [VII-2-1] | 78% | –
36 | CC(=O)Oc1cccc2c1C(=O)OC(C(CC(C)C)NC(=O)C(OC(=O)C(C)C)C(O)C(N)CC(N)=O)C2 (stereo not shown) [VII-3-1] | 78% | –
37 | CCCC(=O)Oc1cccc2c1C(=O)OC(C(CC(C)C)NC(=O)C(OC(C)=O)C(O)C(N)CC(N)=O)C2 (stereo not shown) [VII-3-2] | 78% | –
38 | CC(C)CC(NC(=O)C(O)C(O)C(N)CC(N)=O)C1Cc2cccc(OC(=O)C(C)C)c2C(=O)O1 (stereo not shown) [VII-4-2] | 89% | –
39 | CCCCCCCCCCCCCCCCCC(=O)Oc1cccc2c1C(=O)OC(C(CC(C)C)NC(=O)C(O)C(O)C(N)CC(N)=O)C2 (stereo not shown) [VII-4-3] | 78% | –
40 | COc1cccc2c1C(=O)OC(C(CC(C)C)NC(=O)C(O)C(O)C(N)CC(N)=O)C2 (stereo not shown) [VII-5-1] | 78% | –
41 | CCOc1cccc2c1C(=O)OC(C(CC(C)C)NC(=O)C(O)C(O)C(N)CC(N)=O)C2 (stereo not shown) [VII-5-2] | 78% | –
42 | CCCCNC(=O)CC(N)C(O)C(O)C(=O)NC(CC(C)C)C1Cc2cccc(OCC)c2C(=O)O1 (stereo not shown) [VII-5-3] | 78% | –
43 | CCOc1cccc2c1C(=O)OC(C(CC(C)C)NC(=O)C(O)C(O)C(N)CC(=O)Nc1ccc(C)cc1)C2 (stereo not shown) [VII-5-4] | 78% | –
44 | CCOc1cccc2c1C(=O)OC(C(CC(C)C)NC(=O)C(OC(C)=O)C(O)C(N)CC(N)=O)C2 (stereo not shown) [VII-6-1] | 66% | –
45 | CCOc1cccc2c1C(=O)OC(C(CC(C)C)NC(=O)C(OC(=O)C(C)C)C(O)C(N)CC(N)=O)C2 (stereo not shown) [VII-6-2] | 66% | –
46 | CCOc1cccc2c1C(=O)OC(C(CC(C)C)NC(=O)C(OC(=O)CC)C(O)C(N)CC(N)=O)C2 (stereo not shown) [VII-6-3] | 66% | –

Row | Compound | inhibition in vivo at 25 mg/kg (25 mg/kg i.p.) | inhibition in vivo at 25 mg/kg
47 | CCCCOC(C(=O)NC(CC(C)C)C1Cc2cccc(OC)c2C(=O)O1)C(O)C(N)CC(N)=O (stereo not shown) [VII-7-1] | 89% | –
48 | CCCCOc1cccc2c1C(=O)OC(C(CC(C)C)NC(=O)C(OCCCC)C(O)C(N)CC(N)=O)C2 (stereo not shown) [VII-7-2] | 72% | –
49 | CCCCNC(=O)CC(N)C(O)C(OCCC)C(=O)NC(CC(C)C)C1Cc2cccc(OCC)c2C(=O)O1 (stereo not shown) [VII-7-4] | 66% | –
50 | COC(C(=O)NC(CC(C)C)C1Cc2cccc(O)c2C(=O)O1)C(O)C(N)CC(N)=O (stereo not shown) [VII-8-1] | – | 89%
51 | CCOC(C(=O)NC(CC(C)C)C1Cc2cccc(O)c2C(=O)O1)C(O)C(N)CC(N)=O (stereo not shown) [VII-8-3] | 89% | –
52 | CCNC(=O)CC(N)C(O)C(OC)C(=O)NC(CC(C)C)C1Cc2cccc(OC(=O)CC)c2C(=O)O1 (stereo not shown) [VII-9-1] | 66% | –
53 | CCCCCCCCCCCCCCCCCC(=O)Oc1cccc2c1C(=O)OC(C(CC(C)C)NC(=O)C(OC)C(O)C(N)CC(N)=O)C2 (stereo not shown) [VII-9-2] | 56% | –
54 | COC(C(=O)NC(CC(C)C)C1Cc2cccc(OC(C)=O)c2C(=O)O1)C(O)C(N)CC(N)=O (stereo not shown) [VII-9-3] | 72% | –
55 | CCCC(=O)Oc1cccc2c1C(=O)OC(C(CC(C)C)NC(=O)C(OCC)C(O)C(N)CC(N)=O)C2 (stereo not shown) [VII-9-4] | 78% | –
56 | CCCNC(CC(N)=O)C(O)C(O)C(=O)NC(CC(C)C)C1Cc2cccc(O)c2C(=O)O1 (stereo not shown) [VII-10-1] | 94% | –
57 | CCCCCNC(CC(N)=O)C(O)C(O)C(=O)NC(CC(C)C)C1Cc2cccc(O)c2C(=O)O1 (stereo not shown) [VII-10-2] | – | 94%
58 | CCCCCCCCNC(CC(N)=O)C(O)C(O)C(=O)NC(CC(C)C)C1Cc2cccc(O)c2C(=O)O1 (stereo not shown) [VII-10-3] | 94% | –
59 | CCCCNC(=O)CC(NCCCC)C(O)C(O)C(=O)NC(CC(C)C)C1Cc2cccc(O)c2C(=O)O1 (stereo not shown) [VII-10-4] | 72% | –
60 | CCCCCCCCCCCCCCCCCCNC(CC(N)=O)C(O)C(O)C(=O)NC(CC(C)C)C1Cc2cccc(O)c2C(=O)O1 (stereo not shown) [VII-10-5] | 89% | –
61 | CCNC(CC(N)=O)C(O)C(OC(C)=O)C(=O)NC(CC(C)C)C1Cc2cccc(O)c2C(=O)O1 (stereo not shown) [VII-11-1] | 72% | –
62 | CCCCNC(CC(N)=O)C(O)C(OC(=O)CCC)C(=O)NC(CC(C)C)C1Cc2cccc(O)c2C(=O)O1 (stereo not shown) [VII-11-3] | – | 66%
63 | CCNC(CC(=O)NCCCl)C(O)C(OC(=O)CC)C(=O)NC(CC(C)C)C1Cc2cccc(O)c2C(=O)O1 (stereo not shown) [VII-11-4] | – | 56%
64 | CCNC(CC(N)=O)C(O)C(OC(=O)CC)C(=O)NC(CC(C)C)C1Cc2cccc(OC(=O)C(C)C)c2C(=O)O1 (stereo not shown) [VII-12-1] | 56% | –
65 | CCNC(CC(N)=O)C(O)C(O)C(=O)NC(CC(C)C)C1Cc2cccc(OC(C)=O)c2C(=O)O1 (stereo not shown) [VII-13-1] | 83% | –
66 | CC(=O)Oc1cccc2c1C(=O)OC(C(CC(C)C)NC(=O)C(O)C(O)C(CC(N)=O)NCC(C)C)C2 (stereo not shown) [VII-13-2] | 83% | –
67 | CCNC(CC(N)=O)C(O)C(O)C(=O)NC(CC(C)C)C1Cc2cccc(OC(=O)CC)c2C(=O)O1 (stereo not shown) [VII-13-3] | 83% | –

Reference: patent publication US4393225A, “AI-77 Compounds and pharmaceutically acceptable salts thereof” (Asahi Kasei Kogyo Kabushiki Kaisha, priority 1979, dated 1983)
